Source: PubChem BioAssay (NCI)
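Five compound concentrations were applied to cells in 96-well plates for 48 hours; endpoints were derived by simple linear interpolation of the resulting dose-response curve. Here, GI50 denotes the concentration required for 50% inhibition of growth. TGI: total growth inhibition.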

Tests used:
Experiment in all cases: growth of human tumour cells (NCI), 48 h
RPMI-8226 leukemia = test system: RPMI-8226 leukemia
786-0 renal = test system: 786-0 renal
TK-10 renal = test system: TK-10 renal
SF-295 CNS = test system: SF-295 CNS
EKVX NSCLC = test system: EKVX NSCLC
CCRF-CEM leukemia = test system: CCRF-CEM leukemia
COLO 205 colon = test system: COLO 205 colon
K-562 leukemia = test system: K-562 leukemia
CAKI-1 renal = test system: CAKI-1 renal
MDA-MB-435 = test system: MDA-MB-435
SNB-19 CNS = test system: SNB-19 CNS
NCI-H226 lung = test system: NCI-H226 lung
HL-60(TB) leukemia = test system: HL-60(TB) leukemia
NCI-H23 lung = test system: NCI-H23 lung
MOLT-4 leukemia = test system: MOLT-4 leukemia
MALME-3M melanoma = test system: MALME-3M melanoma
ACHN renal = test system: ACHN renal
SW-620 colon = test system: SW-620 colon
SF-268 CNS = test system: SF-268 CNS
UO-31 renal = test system: UO-31 renal
HS 578T breast = test system: HS 578T breast
KM12 colon = test system: KM12 colon
SR leukemia = test system: SR leukemia
OVCAR-5 ovarian = test system: OVCAR-5 ovarian
IGROV1 ovarian = test system: IGROV1 ovarian
NCI-H522 lung = test system: NCI-H522 lung
UACC-62 melanoma = test system: UACC-62 melanoma
HCT-15 colon = test system: HCT-15 colon
OVCAR-4 ovarian = test system: OVCAR-4 ovarian
SN12C renal = test system: SN12C renal
RXF 393 renal = test system: RXF 393 renal
HCC-2998 colon = test system: HCC-2998 colon
SK-MEL-28 melanoma = test system: SK-MEL-28 melanoma
A498 renal = test system: A498 renal
HCT-116 colon = test system: HCT-116 colon
SK-OV-3 ovarian = test system: SK-OV-3 ovarian
T-47D breast = test system: T-47D breast
SF-539 CNS = test system: SF-539 CNS
A549 NSCLC = test system: A549 NSCLC
SK-MEL-5 melanoma = test system: SK-MEL-5 melanoma
U251 CNS = test system: U251 CNS
LOX IMVI melanoma = test system: LOX IMVI melanoma
MCF7 breast = test system: MCF7 breast
OVCAR-3 ovarian = test system: OVCAR-3 ovarian
SNB-75 CNS = test system: SNB-75 CNS
BT-549 breast = test system: BT-549 breast
OVCAR-8 ovarian = test system: OVCAR-8 ovarian
HT29 colon = test system: HT29 colon
SK-MEL-2 melanoma = test system: SK-MEL-2 melanoma
M14 melanoma = test system: M14 melanoma
DU-145 prostate = test system: DU-145 prostate
HOP-62 NSCLC = test system: HOP-62 NSCLC
PC-3 prostate = test system: PC-3 prostate
NCI-H460 lung = test system: NCI-H460 lung
MDA-MB-231 breast = test system: MDA-MB-231 breast
NCI/ADR-RES ovarian = test system: NCI/ADR-RES ovarian
UACC-257 melanoma = test system: UACC-257 melanoma

C[C@]12CC[C@H]3[C@@H](CC[C@]4(O)C[C@@H](O[C@@H]5O[C@H](CO)[C@@H](O[C@@H]6OC[C@@H](O)[C@H](O)[C@H]6O)[C@H](O)[C@H]5O)CC[C@]34C=O)[C@@]1(O)CC[C@@H]2C1=CC(=O)OC1
GI50 (RPMI-8226 leukemia): 1900 nM | TGI (RPMI-8226 leukemia): 14600 nM | GI50 (786-0 renal): 1420 nM | TGI (786-0 renal): 5190 nM | GI50 (TK-10 renal): 1190 nM | TGI (TK-10 renal): 4490 nM | GI50 (SF-295 CNS): 1700 nM | TGI (SF-295 CNS): 6270 nM | GI50 (EKVX NSCLC): 781 nM | TGI (EKVX NSCLC): 1930 nM | GI50 (CCRF-CEM leukemia): 780 nM | TGI (CCRF-CEM leukemia): 5240 nM | GI50 (COLO 205 colon): 1980 nM | TGI (COLO 205 colon): 7240 nM | GI50 (K-562 leukemia): 1570 nM | TGI (K-562 leukemia): 10200 nM | GI50 (CAKI-1 renal): 886 nM | TGI (CAKI-1 renal): 2260 nM | GI50 (MDA-MB-435): 1710 nM | TGI (MDA-MB-435): 6170 nM | GI50 (SNB-19 CNS): 2530 nM | TGI (SNB-19 CNS): 9270 nM | GI50 (NCI-H226 lung): 1470 nM | TGI (NCI-H226 lung): 3690 nM | GI50 (HL-60(TB) leukemia): 1120 nM | TGI (HL-60(TB) leukemia): 3080 nM | GI50 (NCI-H23 lung): 839 nM | TGI (NCI-H23 lung): 2710 nM | GI50 (MOLT-4 leukemia): 302 nM | TGI (MOLT-4 leukemia): 1820 nM | GI50 (MALME-3M melanoma): 1490 nM | TGI (MALME-3M melanoma): 3450 nM | GI50 (ACHN renal): 306 nM | TGI (ACHN renal): 1880 nM | GI50 (SW-620 colon): 1350 nM | TGI (SW-620 colon): 4670 nM | GI50 (SF-268 CNS): 739 nM | TGI (SF-268 CNS): 2420 nM | GI50 (UO-31 renal): 1540 nM | TGI (UO-31 renal): 5010 nM | GI50 (HS 578T breast): 845 nM | TGI (HS 578T breast): 4310 nM | GI50 (KM12 colon): 1980 nM | TGI (KM12 colon): 8230 nM | GI50 (SR leukemia): 1060 nM | TGI (SR leukemia): 3270 nM | GI50 (OVCAR-5 ovarian): 1770 nM | TGI (OVCAR-5 ovarian): 6320 nM | GI50 (IGROV1 ovarian): 1840 nM | TGI (IGROV1 ovarian): 17600 nM | GI50 (NCI-H522 lung): 237 nM | TGI (NCI-H522 lung): 1510 nM | GI50 (UACC-62 melanoma): 1610 nM | TGI (UACC-62 melanoma): 5040 nM | GI50 (HCT-15 colon): 1600 nM | TGI (HCT-15 colon): 5120 nM | GI50 (OVCAR-4 ovarian): 910 nM | TGI (OVCAR-4 ovarian): 2800 nM | GI50 (SN12C renal): 414 nM | TGI (SN12C renal): 2490 nM | GI50 (RXF 393 renal): 1250 nM | TGI (RXF 393 renal): 3110 nM | GI50 (HCC-2998 colon): 3090 nM | TGI (HCC-2998 colon): 21300 nM | GI50 (SK-MEL-28 melanoma): 2760 nM | TGI (SK-MEL-28 melanoma): 15600 nM | GI50 (A498 renal): 1230 nM | TGI (A498 renal): 4500 nM | GI50 (HCT-116 colon): 1470 nM | TGI (HCT-116 colon): 5770 nM | GI50 (SK-OV-3 ovarian): 1750 nM | TGI (SK-OV-3 ovarian): 7690 nM | GI50 (T-47D breast): 1550 nM | TGI (T-47D breast): 7770 nM | GI50 (SF-539 CNS): 853 nM | TGI (SF-539 CNS): 1840 nM | GI50 (A549 NSCLC): 581 nM | TGI (A549 NSCLC): 1280 nM | GI50 (SK-MEL-5 melanoma): 1220 nM | TGI (SK-MEL-5 melanoma): 2880 nM | GI50 (U251 CNS): 1680 nM | TGI (U251 CNS): 5670 nM | GI50 (LOX IMVI melanoma): 1460 nM | TGI (LOX IMVI melanoma): 5090 nM | GI50 (MCF7 breast): 1300 nM | TGI (MCF7 breast): 7570 nM | GI50 (OVCAR-3 ovarian): 1170 nM | TGI (OVCAR-3 ovarian): 3080 nM | GI50 (SNB-75 CNS): 1150 nM | TGI (SNB-75 CNS): 6650 nM | GI50 (BT-549 breast): 1060 nM | TGI (BT-549 breast): 5200 nM | GI50 (OVCAR-8 ovarian): 1620 nM | TGI (OVCAR-8 ovarian): 5560 nM | GI50 (HT29 colon): 1820 nM | TGI (HT29 colon): 5710 nM | GI50 (SK-MEL-2 melanoma): 1490 nM | TGI (SK-MEL-2 melanoma): 4440 nM | GI50 (M14 melanoma): 2380 nM | TGI (M14 melanoma): 10500 nM | GI50 (DU-145 prostate): 902 nM | TGI (DU-145 prostate): 2310 nM | GI50 (HOP-62 NSCLC): 702 nM | TGI (HOP-62 NSCLC): 3000 nM | GI50 (PC-3 prostate): 780 nM | TGI (PC-3 prostate): 3570 nM | GI50 (NCI-H460 lung): 379 nM | TGI (NCI-H460 lung): 1310 nM | GI50 (MDA-MB-231 breast): 3380 nM | TGI (MDA-MB-231 breast): 22000 nM | GI50 (NCI/ADR-RES ovarian): 999 nM | TGI (NCI/ADR-RES ovarian): 2400 nM | GI50 (UACC-257 melanoma): 2340 nM | TGI (UACC-257 melanoma): 9020 nM
